Experimental data: patent US20100172836A1, “SYNTHESIS OF 18F-RADIOLABELED STYRYLPYRIDINES FROM TOSYLATE PRECURSORS AND STABLE PHARMACEUTICAL COMPOSITIONS THEREOF” (AVID RADIOPHARMACEUTICALS, INC., priority 2008, published 2010)
Converted amounts (≈) assume the structure as drawn.

Key:
Type in all cases: physicochemical
[1] = Extended stability of ^18F-AV-45 Injection formulated with sodium ascorbate at 0.5% (% RCP)
Description: (§1) The ^18F-AV-45 radiopharmaceutical compositions of embodiments of the invention are remarkably stable to radiolysis or chemical degradation. Sodium ascorbate is used to minimize radiolysis during the purification of ^18F-AV-45 and in the final drug product solution to increase stability and shelf life. Ethanol at 1-10% (v/v) in aqueous solution aids in the solubilization of ^18F-AV-45. […] The compositions were analyzed at end-of-synthesis (EOS) using reverse HPLC, equipped with both an ultra violet (UV) detector and radiochemical detector. The radiochemical purity of ^18F-AV-45 was monitored by HPLC with radiometric detection and the purity of ^19F-AV-45 was monitored by HPLC UV detection in the drug product by Area Percent Normalization.
As noted, the radiochemical purity of the ^18F compound is maintained for up to approximately 20 hours after production.

[2] = Radiochemical purity of ^18F-AV-45 Injection with and without sodium ascorbate (HPLC with radiometric detection)
Description: as §1, with “Normalization. At EOS, the radiochemical purity of the ^18F-AV-45 composition prepared without sodium ascorbate was 84% and decomposed further such that at 2 hours the purity was 80%. […] At EOS, the purity was 96% with negligible decomposition at 2 hours post EOS (purity of 95%).” for “Normalization.”

[3] = Stability of ^18F-AV-45 drug product in vials, upright and inverted, at ambient, 40° C. and 50° C. over 12 hours; conditions: three lots
Description: The stability of the drug product was evaluated on three separate manufacturing lots of ^18F-AV-45. Vials were stored upright and inverted at ambient and 40° C. temperatures, and upright at 50° C. Drug product was sampled at the specified intervals over a 12 hour testing period and evaluated for radiochemical purity and strength.

[4] = UV purity of ^19F-AV-45 in ^18F-AV-45 Injection (HPLC UV detection at 350 nm, area percent)
Description: as §1

[5] = Solubility of AV-45 in the drug product composition (visual inspection, HPLC after centrifugation)
Description: The ^18F-AV-45 radiopharmaceutical formulation/composition was evaluated for the solubility of the non-radioactive ^19F-AV-45, which is also formed in quantities of 1-5 μg/mL during the radiosynthesis of ^18F-AV-45 due to the presence of small quantities of ^19F-fluoride from tubing, valves and other sources in the radiosynthesis system. In the absence of ethanol in the composition, particulate matter may be observed due to the low solubility of ^19F-AV-45. The addition of 10% ethanol to the radiopharmaceutical composition was, therefore, evaluated to determine if the solubility of ^19F-AV-45 was sufficient to avoid the potential of precipitate formation. […] A visible precipitate was noticeable in solutions with concentrations ≧22 μg/mL. Samples prepared at concentrations ≦20 μg/mL were evaluated by HPLC analysis following centrifugation. Samples with ≦20 μg/mL were also tested after storage for one week at ambient temperature.

[6] = lot AV4520080304, manufactured without sodium ascorbate (444 MBq/mL), EOS
[7] = lot AV4520080603, manufactured with sodium ascorbate (1036 MBq/mL), EOS

Row | time after production for which radiochemical purity is maintained ([1]; approximately 10% (v/v) ethanol in normal saline containing 0.5% (w/v) sodium ascorbate) | RCP (stability maintained) ([1]; composition comprising ethyl alcohol and sodium ascorbate, up to 20 hours post-production) | % ^18F AV-45 Purity (radiochemical) ([2]; lot AV4520080304, manufactured without sodium ascorbate (444 MBq/mL), 2-hour post EOS) [%] | % ^18F AV-45 Purity (radiochemical) ([2]; lot AV4520080304, manufactured without sodium ascorbate (444 MBq/mL), 2-hour post EOS, listed as 18F AV-45) [%] | % ^18F AV-45 Purity (radiochemical) [2, 6] [%] | % ^18F AV-45 Purity (radiochemical) ([2]; lot AV4520080304, manufactured without sodium ascorbate (444 MBq/mL), EOS, listed as 18F AV-45) [%] | % ^18F AV-45 Purity (radiochemical) ([2]; lot AV4520080603, manufactured with sodium ascorbate (1036 MBq/mL), 2-hour post EOS) [%] | % ^18F AV-45 Purity (radiochemical) ([2]; lot AV4520080603, manufactured with sodium ascorbate (1036 MBq/mL), 2-hour post EOS, listed as 18F AV-45) [%] | % ^18F AV-45 Purity (radiochemical) [2, 7] [%] | % ^18F AV-45 Purity (radiochemical) ([2]; lot AV4520080603, manufactured with sodium ascorbate (1036 MBq/mL), EOS, listed as 18F AV-45) [%] | RCP over 12 hours ([3]; 10% (v/v) ethanol in normal saline, 0.5% (w/v) sodium ascorbate, vials upright and inverted at ambient and 40° C., upright at 50° C.) | drift of the drug product strength ([3]; over 12 hours, all temperatures tested (ambient, 40° C., 50° C.)) [%] | UV purity by area percent at 350 nm ([4]; lot AV4520080304, manufactured without sodium ascorbate (444 MBq/mL), 2-h post EOS) [%] | UV purity by area percent at 350 nm [4, 6] [%] | UV purity by area percent at 350 nm ([4]; lot AV4520080603, manufactured with sodium ascorbate (1036 MBq/mL), 2-h post EOS) [%] | UV purity by area percent at 350 nm [4, 7] [%] | solubility limit ([5]; 10% (v/v) EtOH and 0.5% (w/v) sodium ascorbate in 0.9% aqueous sodium chloride, ambient temperature) [µg/mL] | concentrations at which a visible precipitate was noticeable ([5]; drug product composition (10% EtOH, 0.5% sodium ascorbate, 0.9% NaCl)) [ng/mL] | change in concentration after one week of storage ([5]; samples ≦20 μg/mL, ambient temperature, HPLC) | SMILES
1 | approximately 20 hours | greater than 90% | 80 | 80 | 84 | 84 | 95 | 95 | 96 | 96 | constant | < 5 | – | – | – | – | – | – | – | CNc1ccc(/C=C/c2ccc(OCCOCCOCC[18F])nc2)cc1 [^18F-AV-45, (E)-4-(2-(6-(2-(2-(2-[^18F]fluoroethoxy)ethoxy)ethoxy)pyridin-3-yl)vinyl)-N-methylbenzenamine]
2 | – | – | – | – | – | – | – | – | – | – | – | – | 76 | 83 | 100 | 100 | 17 (≈ 47.2 µM) | ≥ 22000 | no change in concentration | CNc1ccc(/C=C/c2ccc(OCCOCCOCCF)nc2)cc1 [^19F-AV-45]
